In general, IC50 refers to the point on the concentration scale where inhibition reaches its midpoint.

6 compounds from US7091024B2, “Enzyme PDE XVI” (Pfizer Inc., priority 1999, dated 2006) can be followed below.

Assay [1] addresses T1, PDE_XIV (Homo sapiens, UniProt Q9NP56).
T1 construct: made in house; host or cells: Sf9 insect cells (baculovirus, pFASTBAC-FLAG)
As to the kind of experiment: Phosphodiesterase inhibition studies on purified expressed PDE_XIV (cAMP SPA). Conditions: for IC50: N = 2, read-out: IC50 FOR PDEXIV (μM) (N = 2). It counts as biochemical. The protocol:
This allows the specific retention on the column of the recombinant material (since this is fused to the FLAG epitope) whilst the endogenous insect proteins are washed off in the eluate. The recombinant material is then washed off under conditions of low pH. […] The purity of the material is assessed by coomassie staining after sodium dodecyl sulphate-polyacrylamide gel electrophoresis (SDS-PAGE) or through western blotting onto a nitro-cellulose membrane of an unstained SDS-PAGE (containing recombinant PDE) and analysis with the IgG1 monoclonal anti-FLAG epitope antibody. The PDE-FLAG fusion protein is detected due to the interaction between the anti-FLAG antibody and the FLAG epitope which is fused to the PDE protein. The phosphodiesterase activity of the purified PDE-FLAG fusion protein was assayed using a commercially available SPA (scintillation proximity assay) kit (Amersham-Amersham place, Little Chalfont, Bucks, HP7 9NA UK) for either cAMP and/or cGMP hydrolytic activity.

The target of assay [2] is T1, PDE_XIV. As to the kind of experiment: cAMP Scintillation Proximity Assays on purified expressed PDE_XIV (substrate hydrolysis). It counts as biochemical.

Molecules are shown by their SMILES. Several values for one entry are separate records, joined by “and”; a condition that tells them apart may be missing. Identical values can stand only once.

T1 sequence (Q9NP56 whole entry): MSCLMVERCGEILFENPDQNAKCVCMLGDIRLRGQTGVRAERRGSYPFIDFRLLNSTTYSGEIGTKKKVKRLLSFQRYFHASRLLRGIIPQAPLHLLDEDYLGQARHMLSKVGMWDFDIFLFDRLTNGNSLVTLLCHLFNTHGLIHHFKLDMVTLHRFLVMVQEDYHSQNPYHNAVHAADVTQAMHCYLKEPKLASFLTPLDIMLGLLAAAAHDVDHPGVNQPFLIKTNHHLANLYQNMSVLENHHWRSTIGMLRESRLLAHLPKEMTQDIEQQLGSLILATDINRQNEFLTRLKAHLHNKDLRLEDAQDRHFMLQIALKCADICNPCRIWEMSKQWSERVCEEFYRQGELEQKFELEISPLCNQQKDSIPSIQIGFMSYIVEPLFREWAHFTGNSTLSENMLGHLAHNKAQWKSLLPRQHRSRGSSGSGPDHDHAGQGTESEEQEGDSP

For `COc1ccc([C@]2(C#N)CC[C@@H](C(=O)O)CC2)cc1OC1CCCC1` [Ariflo], on PDE_XIV [1], the “sensitivity of PDE_XIV to the PDE inhibitor” value is listed as “not to be sensitive” and the IC50 is over 30 µM.
As to `OCCN(CCO)c1nc(N2CCCCC2)c2nc(N(CCO)CCO)nc(N3CCCCC3)c2n1` [Dipyridamole], the IC50 at PDE_XIV [1] amounted to 10.7 µM.
On the same count and under the same terms, to `CC(C)Cn1c(=O)n(C)c(=O)c2[nH]cnc21` [IBMX] belongs 9.32 µM and 9.72 µM.
Turning to `Cc1[nH]c(=O)c(C#N)cc1-c1ccncc1` [Milrinone], at PDE_XIV [1], the “sensitivity of PDE_XIV to the PDE inhibitor” value is given as “not to be sensitive” and the IC50 was over 30 µM.
Turning to `COc1ccc(C2CNC(=O)C2)cc1OC1CCCC1` (stereo not drawn) [Rolipram], on PDE_XIV [1], the “sensitivity of PDE_XIV to the PDE inhibitor” value was “not to be sensitive” and the IC50 was over 30 µM.
For `Nc1nc2c(ncn2[C@@H]2O[C@@H]3COP(=O)(O)O[C@H]3[C@H]2O)c(=O)[nH]1` [cGMP], the “activity of PDE_XIV against the cyclic nucleotide” value on PDE_XIV [2] is “no activity”.
